According to US5422359A, “α-aminoketone derivatives” (Mitsubishi Kasei Corporation, priority 1992, dated 1995):

Target: T1, m-calpain (Rattus norvegicus, UniProt Q07009)
T1 construct: m-calpain was purified from a brain of rat; from tissue; host or cells: rat brain
T1 sequence (Q07009 20-700 limits assumed): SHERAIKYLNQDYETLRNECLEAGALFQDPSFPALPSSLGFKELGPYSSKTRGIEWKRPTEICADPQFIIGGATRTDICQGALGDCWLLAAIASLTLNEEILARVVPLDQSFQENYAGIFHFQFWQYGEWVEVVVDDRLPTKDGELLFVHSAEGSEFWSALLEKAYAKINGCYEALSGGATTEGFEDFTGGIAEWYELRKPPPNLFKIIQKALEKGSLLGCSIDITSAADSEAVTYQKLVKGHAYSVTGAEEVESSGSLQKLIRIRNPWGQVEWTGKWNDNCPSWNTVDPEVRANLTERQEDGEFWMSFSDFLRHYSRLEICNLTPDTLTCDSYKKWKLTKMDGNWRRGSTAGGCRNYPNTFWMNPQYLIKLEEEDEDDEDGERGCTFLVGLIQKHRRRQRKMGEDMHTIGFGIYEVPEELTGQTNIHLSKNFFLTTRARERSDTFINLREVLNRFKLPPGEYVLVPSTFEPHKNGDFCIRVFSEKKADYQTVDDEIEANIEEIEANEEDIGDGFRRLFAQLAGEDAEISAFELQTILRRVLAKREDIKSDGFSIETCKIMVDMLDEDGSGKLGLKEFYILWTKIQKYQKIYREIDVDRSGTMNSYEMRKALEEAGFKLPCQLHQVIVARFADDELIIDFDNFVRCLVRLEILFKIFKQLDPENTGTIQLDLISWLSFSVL
T1 sequence (Q64537 1-270 partner): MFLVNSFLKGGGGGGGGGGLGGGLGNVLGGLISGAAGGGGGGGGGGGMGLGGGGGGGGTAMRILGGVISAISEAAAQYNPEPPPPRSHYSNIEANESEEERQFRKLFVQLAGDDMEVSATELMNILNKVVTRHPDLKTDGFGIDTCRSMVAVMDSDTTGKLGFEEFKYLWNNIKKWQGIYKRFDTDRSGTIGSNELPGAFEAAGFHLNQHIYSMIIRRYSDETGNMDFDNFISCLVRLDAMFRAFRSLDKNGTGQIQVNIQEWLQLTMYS
Assay: Measurement of inhibitory activity against calpain
Type: biochemical
Details: m-calpain purified from a brain of rat; read-out: 50% inhibitory concentration (IC50)
Method: Measurement of Inhibitory Activity against Calpain
Through the known method disclosed in Journal of Biological Chemistry, vol. 259, p.3210, (1984), m-calpain was purified from a brain of rat. The inhibitory activity against it was measured and determined according to the method disclosed in Journal of Biological Chemistry, vol. 259, p.12489 […].

IC50: 10.1 µM
SMILES: CCCC[C@H](NC(=O)[C@H](CC(C)C)NC(=O)OCc1ccccc1)C(=O)CCCc1ccco1 [Example 5]
